According to patent publication US11312712B2, “Azabenzimidazoles and their use as AMPA receptor modulators” (Janssen Pharmaceutica NV, priority 2015, dated 2022):

Biological target: GluA1o-γ8 (GRIA1o-CACNG8 fusion construct) (Homo sapiens (Human), UniProt P42261+Q8WXS5)
Test: Calcium flux assay (FLIPR), inhibition of TARP γ8 dependent AMPA receptor activity
Format: cell-based
Settings: GluA1o-γ8 (GRIA1o-CACNG8 fusion) in HEK293 cells, calcium flux after 15 μM glutamate
Summary of the method: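 HEK293 cells stably expressing a 1:1 GRIA1o–CACNG8 fusion were loaded with Calcium-5/6 dye plus compound in pH 7.4 HEPES-buffered saline. FLIPR calcium flux after 15 μM glutamate was normalized to untreated and 10 μM CP465022 controls, and a four-parameter logistic fit gave pIC50.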

Sequence of GluA1o-γ8 (GRIA1o-CACNG8 fusion construct) (P42261 other isoform, or with tags, fused parts or gaps): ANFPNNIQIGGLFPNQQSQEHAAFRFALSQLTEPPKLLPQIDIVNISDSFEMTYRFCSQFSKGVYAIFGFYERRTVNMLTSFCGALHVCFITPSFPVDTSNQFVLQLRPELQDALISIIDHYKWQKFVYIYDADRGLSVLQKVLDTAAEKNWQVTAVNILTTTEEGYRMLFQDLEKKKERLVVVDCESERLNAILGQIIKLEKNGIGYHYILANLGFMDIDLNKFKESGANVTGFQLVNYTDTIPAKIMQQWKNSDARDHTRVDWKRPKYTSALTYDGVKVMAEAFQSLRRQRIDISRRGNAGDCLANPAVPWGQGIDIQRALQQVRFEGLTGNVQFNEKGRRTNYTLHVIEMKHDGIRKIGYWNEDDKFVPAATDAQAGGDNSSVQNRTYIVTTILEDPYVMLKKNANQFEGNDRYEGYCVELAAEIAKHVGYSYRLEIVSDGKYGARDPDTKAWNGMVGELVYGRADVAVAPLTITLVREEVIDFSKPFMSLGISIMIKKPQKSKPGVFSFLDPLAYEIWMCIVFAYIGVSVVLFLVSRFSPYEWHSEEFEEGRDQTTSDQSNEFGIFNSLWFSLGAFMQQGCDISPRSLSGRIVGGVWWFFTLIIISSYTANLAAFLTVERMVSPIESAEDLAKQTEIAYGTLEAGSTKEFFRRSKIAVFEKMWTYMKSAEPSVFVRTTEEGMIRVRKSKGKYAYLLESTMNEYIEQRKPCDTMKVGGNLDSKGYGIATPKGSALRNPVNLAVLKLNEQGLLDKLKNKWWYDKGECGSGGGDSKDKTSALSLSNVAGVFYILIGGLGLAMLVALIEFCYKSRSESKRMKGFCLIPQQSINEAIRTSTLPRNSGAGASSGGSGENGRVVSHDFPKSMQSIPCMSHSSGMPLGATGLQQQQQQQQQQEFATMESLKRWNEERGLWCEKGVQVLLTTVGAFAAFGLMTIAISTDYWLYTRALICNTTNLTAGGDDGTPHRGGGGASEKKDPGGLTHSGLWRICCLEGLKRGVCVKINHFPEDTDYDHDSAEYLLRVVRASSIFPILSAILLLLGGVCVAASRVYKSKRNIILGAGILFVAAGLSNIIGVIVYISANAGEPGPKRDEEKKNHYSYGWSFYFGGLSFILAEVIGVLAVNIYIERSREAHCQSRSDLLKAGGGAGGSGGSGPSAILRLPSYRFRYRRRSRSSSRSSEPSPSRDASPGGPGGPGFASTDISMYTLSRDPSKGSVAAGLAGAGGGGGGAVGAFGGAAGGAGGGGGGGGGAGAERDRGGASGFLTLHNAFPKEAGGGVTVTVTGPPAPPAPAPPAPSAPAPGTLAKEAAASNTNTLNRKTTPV

Q: With `Cc1c(Br)c2ccc(C(F)(F)F)nc2n1-c1cnc2c(c1)CC(=O)N2` [Example 395, 5-[3-Bromo-2-methyl-6-(trifluoromethyl)pyrrolo[2,3-b]pyridin-1-yl]-1,3-dihydropyrrolo[2,3-b]pyridin-2-one] as the molecule, how does the IC50 read?
A: 25.1 nM

Q: `CC(C)c1cc2ccc(C(F)(F)F)nc2n1-c1ccc2c(c1)CC(=O)N2` [Example 396, 5-[2-Isopropyl-6-(trifluoromethyl)pyrrolo[2,3-b]pyridin-1-yl]indolin-2-one] was tested. Which IC50 did it give?
A: 0.0126 nM

Q: Which IC50 does the source give for `O=C1Cc2cc(-n3c(-c4ccccc4)cc4ccc(C(F)(F)F)nc43)ccc2N1` [Example 397, 5-[2-Phenyl-6-(trifluoromethyl)pyrrolo[2,3-b]pyridin-1-yl]indolin-2-one] here?
A: 0.0398 nM

Q: For `O=C1Cc2cc(-n3c(-c4ccc(F)cc4)cc4ccc(C(F)(F)F)nc43)ccc2N1` [Example 398, 5-[2-(4-Fluorophenyl)-6-(trifluoromethyl)pyrrolo[2,3-b]pyridin-1-yl]indolin-2-one], which IC50 is on record?
A: 0.0631 nM

Q: For `O=C1Cc2cc(-n3c(C4CC4)cc4ccc(C(F)(F)F)nc43)ccc2N1` [Example 399, 5-[2-Cyclopropyl-6-(trifluoromethyl)pyrrolo[2,3-b]pyridin-1-yl]indolin-2-one], which IC50 is on record?
A: 0.0251 nM

Q: `Cc1ccc2cc(-c3ccccc3)n(-c3cnc4c(c3)CC(=O)N4)c2n1` [Example 400, 5-(6-Methyl-2-phenyl-pyrrolo[2,3-b]pyridin-1-yl)-1,3-dihydropyrrolo[2,3-b]pyridin-2-one] was tested. Which IC50 did it give?
A: 0.251 nM

Q: With `CC(C)c1cc2ccc(C(F)(F)F)nc2n1-c1cnc2c(c1)CC(=O)N2` [Example 401, 5-[2-Isopropyl-6-(trifluoromethyl)pyrrolo[2,3-b]pyridin-1-yl]-1,3-dihydropyrrolo[2,3-b]pyridin-2-one] as the molecule, how does the IC50 read?
A: 0.0316 nM

Q: `Cc1cc2ccc(C(F)(F)F)nc2n1-c1cnc2c(c1)CC(=O)N2` [Example 402, 5-[2-Methyl-6-(trifluoromethyl)pyrrolo[2,3-b]pyridin-1-yl]-1,3-dihydropyrrolo[2,3-b]pyridin-2-one] was tested. Which IC50 did it give?
A: 10 nM

Q: With `CCc1cc2cccnc2n1-c1cc(C)c2c(c1)CC(=O)N2` [Example 403, 5-(2-Ethylpyrrolo[2,3-b]pyridin-1-yl)-7-methyl-indolin-2-one] as the molecule, how does the IC50 read?
A: 1.26 nM

Q: Which IC50 does the source give for `Cc1ccc2nc(C(C)(F)F)n(-c3cc(Cl)c4[nH]ncc4c3)c2n1` [Example 410, 3-(7-Chloro-1H-indazol-5-yl)-2-(1,1-difluoroethyl)-5-methyl-3H-imidazo[4,5-b]pyridine] here?
A: 1.26 nM

Q: Which IC50 does the source give for `FC(F)(F)c1ccc2nc(CC3CC3)n(-c3cc(Cl)c4[nH]ncc4c3)c2n1` [Example 411, 3-(7-Chloro-1H-indazol-5-yl)-2-(cyclopropylmethyl)-5-(trifluoromethyl)-3H-imidazo[4,5-b]pyridine] here?
A: 0.158 nM

Q: How did the IC50 turn out when `CCCc1nc2ccc(C(F)(F)F)nc2n1-c1cc(Cl)c2[nH]ncc2c1` [Example 412, 3-(7-Chloro-1H-indazol-5-yl)-2-propyl-5-(trifluoromethyl)-3H-imidazo[4,5-b]pyridine] was run?
A: 0.126 nM

Q: Which IC50 does the source give for `COCc1nc2ccc(C(F)(F)F)nc2n1-c1cc(Cl)c2[nH]ncc2c1` [Example 413, 3-(7-Chloro-1H-indazol-5-yl)-2-(methoxymethyl)-5-(trifluoromethyl)-3H-imidazo[4,5-b]pyridine] here?
A: 0.398 nM

Q: For `CC(C)Cc1nc2ccc(C(F)(F)F)nc2n1-c1cc(Cl)c2[nH]ncc2c1` [Example 414, 3-(7-Chloro-1H-indazol-5-yl)-2-isobutyl-5-(trifluoromethyl)-3H-imidazo[4,5-b]pyridine], which IC50 is on record?
A: 0.126 nM

Q: `COc1ccc2nc(C(F)(F)F)n(-c3cc(Cl)c4[nH]ncc4c3)c2n1` [Example 415, 3-(7-Chloro-1H-indazol-5-yl)-5-methoxy-2-(trifluoromethyl)-3H-imidazo[4,5-b]pyridine] was tested. Which IC50 did it give?
A: 0.0501 nM

Q: Which IC50 does the source give for `FC(F)(F)Cc1nc2ccc(C(F)(F)F)nc2n1-c1cc(Cl)c2[nH]ncc2c1` [Example 416, 3-(7-Chloro-1H-indazol-5-yl)-2-(2,2,2-trifluoroethyl)-5-(trifluoromethyl)-3H-imidazo[4,5-b]pyridine] here?
A: 0.501 nM

Q: `CCC(F)(F)c1nc2ccc(C(F)(F)F)nc2n1-c1cc(C)c2[nH]ncc2c1` [Example 417, 2-(1,1-Difluoropropyl)-3-(7-methyl-1H-indazol-5-yl)-5-(trifluoromethyl)-3H-imidazo[4,5-b]pyridine] was tested. Which IC50 did it give?
A: 3.16 nM

Q: For `Cc1cc(-n2c(CCC(F)(F)F)nc3ccc(C(F)(F)F)nc32)cc2cn[nH]c12` [Example 418, 3-(7-Methyl-1H-indazol-5-yl)-5-(trifluoromethyl)-2-(3,3,3-trifluoropropyl)-3H-imidazo[4,5-b]pyridine], which IC50 is on record?
A: 3.98 nM

Q: `FC(F)(F)c1cnc2c(c1)nc(C(F)(F)F)n2-c1cc(Cl)c2[nH]ncc2c1` [Example 419, 3-(7-Chloro-1H-indazol-5-yl)-2,6-bis(trifluoromethyl)-3H-imidazo[4,5-b]pyridine] was tested. Which IC50 did it give?
A: 0.631 nM

Q: For `Cc1cc(-n2c(C(C)C)cc3cc(F)cnc32)cc2c1NC(=O)C2` [Example 420, 5-(5-Fluoro-2-isopropyl-1H-pyrrolo[2,3-b]pyridin-1-yl)-7-methylindolin-2-one], which IC50 is on record?
A: 0.126 nM

Q: For `Cc1cc(-n2c(C)cc3ccc(C(F)F)nc32)cc2c1NC(=O)C2` [Example 421, 5-(6-(Difluoromethyl)-2-methyl-1H-pyrrolo[2,3-b]pyridin-1-yl)-7-methylindolin-2-one], which IC50 is on record?
A: 0.0794 nM

Q: Which IC50 does the source give for `Cc1cc(-n2c(C=O)cc3ccc(C(F)(F)F)nc32)cc2c1NC(=O)C2` [Example 422, 1-(7-Methyl-2-oxoindolin-5-yl)-6-(trifluoromethyl)-1H-pyrrolo[2,3-b]pyridine-2-carbaldehyde] here?
A: 0.316 nM
